The values that follow come from patent US20040014814A1, “Compositions and methods for delaying preventing rejuvenating or reversing senescence in cells” (priority 2000, published 2004).

Data set [1] deals with MRC-5 cells. Briefly: Effect of carnosine derivatives on cell growth / toxicity in MRC-5 cell cultures. Also on record: key to Effect on cell growth (score): (0) Toxic to cell growth; (10) Confluent cell growth. As to conditions: for Effect on cell growth (score): MRC-5 cells, scale 0 toxic to 10 confluent; for Cell Growth: summary grade. The format is cell-based, human. The protocol: (§1) MRC -5 cells (fetal lung fibroblasts) were grown in Dulbecco's modification of Eagles' minimum essential medium (DMEM Gibco BRL Cat. No. 12800-017) containing 0.45% glucose, or MEM (Gibco BRL Cat. No. 612800-017) containing 0.1% glucose. Both media contained 10% fetal calf scrum (TRACE Biosciences Cat. No. 15-010-0500V) and Penicillin/Streptomycin 5000 IU, 5000 μg/ml (TRACE Biosciences Cat. No. 21-140-0100V). Cells were grown in […] flasks or in dishes (35 mm or 60 mm, Nunc) at 37° C. with 5% CO2. Cells were harvested with trypsin (TRACE Biosciences Cat. No. 21-163-0100V) and counted with a model ZF6 Coulter Counter. Cells were split in ratios of 1:2 or 1:4. Population doublings (PDs) were calculated from the ratio of the initial number of cells plated to the yield of cells after a period of time. This provides an accurate measure of cell growth, with the split ratios 1:2 and 1:4 corresponding to one and two passages respectively, which are broadly equivalent to population doublings. The media was changed every 5 days or when cells became confluent.
MRC-5 cells were used to observe the toxicity of a series of derivatives of carnosine on cell growth. Cell cultures were grown in DMEM media with 10% fetal calf serum and supplemented with the following carnosine analogues: carnosine ethyl ester, carnosine iso-propyl ester, carnosine n-butyl ester, carnosine n-hexyl ester, N-propyl carnosine, N-hexanoyl carnosine, N-trimethyl acetyl carnosine, N-acetyl carnosine methyl ester, N-acetyl carnosine ethyl ester and N-acetyl carnosine, […] Cells were also grown in DMEM supplemented with carnosine at 20 mM. […] Even at lower concentrations cell morphology was that of cells that have reached senescence i.e. broad flat cells with long process reaching out to other cells. Cell numbers were less than in the control flasks. […] As shown in FIG. 1 Acetyl-carnosine achieved a lifespan 5 PDs greater than the control and 6.7 PDs greater than carnosine over a 43 day period. […] In the early phase of the experiment growth rates were markedly greater than with the other compounds (FIG. 1).

Data set [2] has as its system MRC-5 cells. In words: Lifespan (population doublings) of MRC-5 cells in culture. As to conditions: for Lifespan of MRC-5 cells in culture, Population Doublings (PD): commenced at passage 55; for Lifespan extension: summary grade. It counts as cell-based, human. The arrangement: key to Lifespan extension: 0 = zero effect; 10 = maximum effect. As to the method:
Cultures were split in a 1:4 ratio when flasks were approximately 70-80% confluent.
as §1
MRC-5 cells were used to observe the toxicity of a series of derivatives of carnosine on cell growth. Cell cultures were grown in DMEM media with 10% fetal calf serum and supplemented with the following carnosine analogues: carnosine ethyl ester, carnosine iso-propyl ester, carnosine n-butyl ester, carnosine n-hexyl ester, N-propyl carnosine, N-hexanoyl carnosine, N-trimethyl acetyl carnosine, N-acetyl carnosine methyl ester, N-acetyl carnosine ethyl ester and N-acetyl carnosine, at concentrations ranging between 1 mM to 20 mM. Cells were also grown in DMEM supplemented with carnosine at 20 mM. […] Even at lower concentrations cell morphology was that of cells that have reached senescence i.e. broad flat cells with long process reaching out to other cells. Cell numbers were less than in the control flasks. […] As shown in FIG. 1 Acetyl-carnosine achieved a lifespan 5 PDs greater than the control and 6.7 PDs greater than carnosine over a 43 day period. […] In the early phase of the experiment growth rates were markedly greater than with the other compounds (FIG. 1).
In fact all populations of MRC-5 cells grown in DMEM supplemented with acetyl-carnosine preserved a younger phenotype for much longer than cells grown in DMEM supplemented with carnosine or its analogues.
Under control conditions the range was 57.3-64.5 PDs (n=5). With the addition of carnosine (20mM) to the medium the range was 61.8-63.7 PDs (n=5) with an average increase of 1.4 PDs which represents a 3 fold increase in cell number. However, when acetyl-carnosine (5 mM) was added to the medium, the range was 62.3-70.3 PDs (n=5) with an average increase of 5 PDs compared with the controls. This represents a 32 fold increase in cell number.

The next data set concerns corneal epithelial cells. In words: Uptake of radio-labeled (3H) compounds in fresh bovine eyes (corneal epithelium into aqueous humour). As to conditions: after 4 hours. The format is in vitro ADME. The protocol:
Radio-labeled (3H) carnosine and acetyl-carnosine were assayed for their rate of uptake using fresh bovine eyes and MRC-5 fibroblast cultures. For bovine eyes small cylinders (radius 3.5mm and height 8mm) placed on top of the eye formed a fix seal with the corneal epithelial cells. 200 microlitres of the radio-labeled compounds in 5mM unlabeled compound in phosphate buffered saline were instilled onto the eye and at different time points 600 μl of aqueous humour was aspirated using a 25 gauge needle for counting in the scintillation counter.
The uptake experiments were repeated using fresh bovine eyes.

For data set [3], the system named is MRC-5 cells. In words: Uptake of radio-labeled (3H) compounds by MRC-5 fibroblast cells. Conditions: MRC-5 cells, after 48 hours.
Protocol: For MRC-5 cells, (3H)—carnosine and acetyl carnosine were added to the medium of near confluent 60mm culture dishes. At different time points cells were washed three times with phosphate buffered saline, cells harvested and cell-associated radioactivity determined using Packard Starscint scintillation fluid.
The rate of uptake of carnosine and acetyl-carnosine by MRC-5 cells was studied using radio-labeled tritiated (3H) carnosine and acetyl-carnosine compounds. The uptake was measured in MRC-5 cells at passage 28 over a 48 hour period (FIG. 3A).
For data set [4], the system named is MRC-5 cells. As to conditions: carnosine supplemented media; cited from earlier work.
For a further data set, the system named is human blood peptidases. In words: Stability in human blood serum / attack by human blood peptidases. It counts as in vitro ADME. As to conditions: human blood serum.
The next data set relates to senescent MRC-5 cells. Conditions: 20 mM; PCT/AU91/00541; cited from earlier work.
Data set [5] relates to UV-Induced Immuno-suppression. Also on record: key: 0 = zero effect; 10 = maximum effect. As to conditions: footnote (3) Australian provisional PQ 5150; cited from earlier work.
Data set [6] is described as follows: Fate of compound after cellular uptake. It counts as cell-based. Conditions: compared with acetyl-carnosine. The protocol: Experiments were conducted to determine the fate of acetyl-carnosine and carnosine after cellular uptake. […] A slower metabolism and incorporation into other proteins may be one reason for acetyl-carnosine having higher effective intracellular concentrations compared with carnosine despite its lower overall uptake.

Data set [7] concerns MRC-5 cells. The arrangement: Cell and eye uptake assay: key to the marks not given beside the values.

As to `CCOC(=O)[C@H](Cc1cnc[nH]1)NC(=O)CCN` [Carnosine ethyl ester, carnosine ethyl ester], the “Effect on cell growth (score)” value in the data set on MRC-5 cells [1] (2 mM) worked out at 5; with MRC-5 cells [1] (5 mM) it was 5; with MRC-5 cells [1] (10 mM), 4; in the data set on MRC-5 cells [1] (20 mM), 3.

In the case of `CC(C)OC(=O)[C@H](Cc1cnc[nH]1)NC(=O)CCN` [Carnosine iso-propyl ester, carnosine iso-propyl ester], the “Effect on cell growth (score)” value with MRC-5 cells [1] (2 mM) amounted to 2; in the data set on MRC-5 cells [1] (5 mM), 0; in the data set on MRC-5 cells [1] (10 mM), 0; with MRC-5 cells [1] (20 mM), 0. In addition, in the data set with MRC-5 cells [1], the “Cell Growth” value is recorded as “TOXIC”.

`CCCCOC(=O)[C@@H](Cc1cnc[nH]1)NC(=O)CCN` [Carnosine n-butyl ester, carnosine n-butyl ester]: the “Effect on cell growth (score)” value in the data set on MRC-5 cells [1] (2 mM) came to 5; in the data set on MRC-5 cells [1] (5 mM) it was 5; with MRC-5 cells [1] (10 mM), 2; in the data set with MRC-5 cells [1] (20 mM) it was 0. The “Cell Growth” value with MRC-5 cells [1] was “TOXIC”.

Take `NCCC(=O)N[C@@H](Cc1cnc[nH]1)C(=O)O` [Carnosine, β-alanyl-L-histidine, reference compound]: the “Range of lifespans of populations of MRC-5 cells” value in the data set with MRC-5 cells [2] (20 mM in medium, n=5) is listed as 61.8-63.7 PDs. Also, the “Lifespan of MRC-5 cells in culture, Population Doublings (PD)” value (shortened to “Lifespan of MRC-5 cells in culture”) with MRC-5 cells [2] (20 mM) came out at 8.5 PD. Moreover, the “Average increase in lifespan compared with controls” value with MRC-5 cells [2] (20 mM, n=5) worked out at 1.4 PDs. Moreover, in the data set on MRC-5 cells [2] (20 mM, worked out from the PD increase), the “Increase in cell number” value worked out at 3 fold. In addition, the “Increase in cell mass” value in the data set with MRC-5 cells [2] (cells exposed to supplemented media) came to 3 fold. The “Uptake of (3H) compound into aqueous humour” value with corneal epithelial cells is reported as 1.3%. The “Uptake relative to acetyl-carnosine” value in the data set on corneal epithelial cells was 2 times; in the data set on MRC-5 cells [7] (human, 48 h), 2 times. Further, in the data set on MRC-5 cells [3], the “Number of cells growing in supplemented media” value is 2.4×10^6. In addition, the “Increase in cell mass reported by McFarland & Holliday” value in the data set on MRC-5 cells [4] is 12 fold. Besides, the results for the “Effect on cell growth (score)” value in the data set on MRC-5 cells [1] (5 mM), with MRC-5 cells [1] (10 mM) and in the data set with MRC-5 cells [1] (20 mM) were 5, 6 and 7, respectively. In addition, the “Stability in human blood serum” value in the data set with human blood peptidases is listed as “rapidly destroyed”. Moreover, the “Effect on senescent MRC-5 cells transferred to supplemented medium” value in the data set on senescent MRC-5 cells is recorded as “rejuvenated”. Besides, in data set [5], the “UV immuno suppression: post irradiation assay (3)” value is recorded as 0. The “Incorporation of label into higher molecular weight proteins after uptake” value in data set [6] was “more rapidly incorporated into higher molecular weight proteins”. In the data set with MRC-5 cells [7], the “Cell and eye uptake assay” value is recorded as “++++”. In addition, the “Uptake of (3H) compound by MRC-5 cells” value with MRC-5 cells [7] (human, 48 h) is given as 0.32%.

With `CCOC(=O)C(Cc1cnc[nH]1)NC(=O)CCNC(C)=O` (centres unmarked) [N-acetyl carnosine ethyl ester], the “Effect on cell growth (score)” value came out at 6 in the data set with MRC-5 cells [1] (0.5 mM); 5 in the data set on MRC-5 cells [1] (1 mM); 4 in the data set on MRC-5 cells [1] (2 mM); 4 with MRC-5 cells [1] (5 mM); 2 with MRC-5 cells [1] (10 mM); 0 in the data set with MRC-5 cells [1] (20 mM).

On to `COC(=O)C(Cc1cnc[nH]1)NC(=O)CCNC(C)=O` (centres unmarked) [N-acetyl carnosine methyl ester], for which the “Effect on cell growth (score)” value was determined as 6 with MRC-5 cells [1] (0.5 mM); 6 with MRC-5 cells [1] (1 mM); 5 with MRC-5 cells [1] (2 mM); 5 with MRC-5 cells [1] (5 mM); 5 with MRC-5 cells [1] (10 mM); 0 in the data set with MRC-5 cells [1] (20 mM).

With `CCCCCC(=O)NCCC(=O)N[C@@H](Cc1c[nH]cn1)C(=O)O` [N-hexanoyl carnosine], in the data set with MRC-5 cells [2] (5 mM), the “Lifespan of MRC-5 cells in culture” value came to 10.8 PD. In the data set with MRC-5 cells [2], this molecule had a Lifespan extension of 0. The “Effect on cell growth (score)” value is recorded as 6 in the data set with MRC-5 cells [1] (0.5 mM); 6 with MRC-5 cells [1] (1 mM); 5 in the data set with MRC-5 cells [1] (2 mM); 4 in the data set with MRC-5 cells [1] (5 mM); 3 with MRC-5 cells [1] (10 mM); 3 in the data set on MRC-5 cells [1] (20 mM).

As to `CC(C)(C)C(=O)NCCC(=O)NC(Cc1cnc[nH]1)C(=O)O` (centres unmarked) [N-trimethyl acetyl carnosine], the “Lifespan of MRC-5 cells in culture” value in the data set on MRC-5 cells [2] (5 mM) was found to be 9.4 PD. Also, the Lifespan extension in the data set on MRC-5 cells [2] stood at 0. In addition, the “Effect on cell growth (score)” value in the data set on MRC-5 cells [1] (0.5 mM) came to 6; in the data set with MRC-5 cells [1] (1 mM), 6; in the data set on MRC-5 cells [1] (2 mM) it was 5; in the data set on MRC-5 cells [1] (5 mM), 4; with MRC-5 cells [1] (10 mM), 3; in the data set with MRC-5 cells [1] (20 mM) it was 3.

`CCCCCCOC(=O)[C@H](Cc1c[nH]cn1)NC(=O)CCN` [carnosine n-hexyl ester]: the “Effect on cell growth (score)” value with MRC-5 cells [1] (2 mM) came to 3; in the data set on MRC-5 cells [1] (5 mM), 1; with MRC-5 cells [1] (10 mM), 0; in the data set on MRC-5 cells [1] (20 mM) it was 0. Also, in the data set with MRC-5 cells [1], the “Cell Growth” value was “TOXIC”.

Regarding N-propyl carnosine, in the data set on MRC-5 cells [2] (5 mM), the “Lifespan of MRC-5 cells in culture” value is on record as 11.0 PD. In addition, in the data set on MRC-5 cells [2], the Lifespan extension was 0. In addition, the “Effect on cell growth (score)” value came out at 6 with MRC-5 cells [1] (0.5 mM); 6 with MRC-5 cells [1] (1 mM); 5 in the data set with MRC-5 cells [1] (2 mM); 4 in the data set with MRC-5 cells [1] (5 mM); 3 with MRC-5 cells [1] (10 mM); 2 with MRC-5 cells [1] (20 mM).
